Test results reported in patent US20260317272A1, “USE OF STROBILURIN TYPE COMPOUNDS FOR COMBATING PHYTOPATHOGENIC FUNGI CONTAINING AN AMINO ACID SUBSTITION F129L IN THE MITOCHONDRIAL CYTOCHROME B PROTEIN CONFERRING RESISTANCE TO QO INHIBITORS XVI” (priority 2023, published 2026).

Assays:
Puccinia triticina = test: Use Example 6: preventative control of brown rust on wheat (PUCCRT P7); format: in vivo, Puccinia triticina (syn. P. recondita); conditions: 16 ppm, seven days before inoculation, 9 to 12 days, untreated 85
Description: (§1) The compound was dissolved in a mixture of acetone and/or dimethylsulfoxide and the wetting agent/emulsifier Wettol, which is based on ethoxylated alkylphenoles, in a ratio (volume) solvent-emulsifier of 99 to 1 to give a total volume of 5 ml. Subsequently, water was added to total volume of 100 ml. This stock solution was then diluted with the described solvent-emulsifier-water mixture to the final concentration given in the tables below.
Use Example 6. Preventative Control of Brown Rust on Wheat Caused by Puccinia triticina (Syn. P. recondita) (PUCCRT P7)
The first two developed leaves of potted wheat seedling were sprayed to run-off with previously described spray solution, containing the concentration of active ingredient or their mixture as described below. Seven days later the plants were dusted with spores of Puccinia triticina. To ensure the success of the artificial inoculation, the plants were transferred to a humid chamber without light and a relative humidity of 95 to 99% and 20 to 24° C. for 24 h. Then the trial plants were cultivated for 9 to 12 days in a greenhouse chamber at 20 to 24° C. and a relative humidity between 65 and 70%. The extent of fungal attack on the leaves was visually assessed as % diseased leaf area.

Pyrenophora teres = test: Use Example 11: control of net blotch on barley (PYRNTE P1); format: in vivo, Pyrenophora (syn. Drechslera) teres; conditions: F129L strain, inoculated the next day, 16 ppm, untreated 75%
Description: as §1
Use Example 11. Control of Net Blotch on Barley Caused by Pyrenophora teres (PYRNTE P1)
The first fully developed leaves of potted barley plants were sprayed to run-off previously described spray solution, containing the concentration of active ingredient or their mixture mentioned in the table below. The next day the treated plants were inoculated with an aqueous spore suspension Pyrenophora (syn. Drechslera) teres. The strain used contains the amino acid substitution F129L in the mitochondrial cytochrome b protein conferring resistance to Qo inhibitors. Then the trial plants were cultivated for up to 19 days at 20-24° C. and a relative humidity close to 70%, the extent of fungal attack on the leaves was visually assessed as % diseased leaf area.

Phakopsora pachyrhizi [1] = test: Use Example 14: activity against Asian soybean rust under semi field conditions; format: in vivo; conditions: 100 g a.i./ha; for Efficacy, % / B14 Efficacy, %: Abbot's formula; for Efficacy, %: B14; for infection rate, %: B14 (14 days after second application); for B14 Efficacy, % / B14 infection rate, %: 14 days after second application, semi field, Brazil; for B14 infection rate, %: sprayed twice, 14 day interval
Description: Use Example 14. Activity Against Asian Soybean Rust (Phakopsora pachyrhizi) Under Semi Field Conditions
Soybeans were grown in an area covered with an insect proof net under natural temperature and light regime in Brazil. Seeds were sown in a tray, allowed to germinate and grow for 14-23 days, and afterwards transplanted to containers. Subsequently, the plants were grown for another 27-35 days before spray application.
The soybean plants were sprayed twice at a spray interval of 14 days. The spray solutions were prepared by mixing experimental formulations (100 g/l SC), in water, adding the adjuvant Mees™ (BASF, soybean oil methyl ester 824.3 g/L, EC) at 0.5 I/ha. The plants were sprayed in a mobile spray cabinet with a horizontal boom. The spray solutions were applied with 500 L/ha spray volume with a flat fan nozzle.
The plants were inoculated with natural population of Phakopsora pachyrhizi spore suspension one day after each spray application. Plants were incubated in a mobile chamber with a misting system at saturated humidity following each inoculation.
Soybean rust infestation was assessed as percent infected leaf area at 14 days after second application (B14). These percent values were converted in efficacies. The efficacy (E) was calculated as follows using Abbot's formula: […]

Phakopsora pachyrhizi [2] = test: Use Example 4: protective control of soybean rust on soybeans (PHAKPA P6); format: in vivo; conditions: 16 ppm, six days before inoculation, F129L strain, up to 14 days, untreated 90
Description: as §1
Use Example 4. Protective Control of Soybean Rust on Soybeans Caused by Phakopsora pachyrhizi (PHAKPA P6)
(§2) Leaves of potted soybean seedlings were sprayed to run-off with the previously described spray solution, containing the concentration of active ingredient as described below. The plants were allowed to air-dry. The trial plants were cultivated for six days in a greenhouse chamber at 23-27° C. and a relative humidity between 60 and 80%. Then the plants were inoculated with spores of Phakopsora pachyrhizi. The strain used contains the amino acid substitution F129L in the mitochondrial cytochrome b protein conferring resistance to Qo inhibitors. To ensure the success the artificial inoculation, the plants were transferred to a humid chamber with a relative humidity of about 95% and 23 to 27° C. for 24 hr. The trial plants were cultivated for up to 14 days in a greenhouse chamber at 23 to 27° C. and a relative humidity between 60 and 80%. The extent of fungal attack on the leaves was visually assessed as % diseased leaf area, the disease level of untreated controls was usually higher than 85%.

Puccinia striiformis = test: Use Example 10: preventative control of wheat stripe rust on wheat (PUCCST P7); format: in vivo; conditions: 16 ppm, untreated 90%
Description: as §1
Use Example 10. Preventative Control of Wheat Stripe Rust on Wheat Caused by Puccinia striiformis (PUCCST P7)
The first two developed leaves of potted wheat seedling were sprayed to run-off with previously described spray solution, containing the concentration of active ingredient or their mixture as described below. Seven days later the plants were inoculated with spores of Puccinia striiformis. To ensure the success of the artificial inoculation, the plants were transferred to a chamber without light and a temperature of 5° C. for 24 h. Then the trial plants were cultivated for up to 14 days in a greenhouse chamber at 16° C. and a relative humidity of minimum 75%. The extent of fungal attack on the leaves was visually assessed as % diseased leaf area.

Phakopsora pachyrhizi [3] = test: Use Example 3: protective control of soybean rust on soybeans (PHAKPA P2); format: in vivo; conditions: 16 ppm, 2 days before inoculation, F129L strain, up to 14 days, untreated 90
Description: as §1
Use Example 3. Protective Control of Soybean Rust on Soybeans Caused by Phakopsora pachyrhizi (PHAKPA P2)
as §2, with “active ingredient or their mixture as described” for “active ingredient as described”, “cultivated for 2 days in” for “cultivated for six days in”, “95% and 20 to 24°” for “95% and 23 to 27°”, “20 to 24° C. for” for “23 to 27° C. for”

[4] = Table 5, untreated infection 71%
[5] = Table 3, untreated infection 56

Q: What does the source list for `CO/C=C(/C(=O)OC)c1cccc(C)c1CO/N=C(\COC)c1c(F)cc(F)cc1F` [Compound 4, methyl (E)-3-methoxy-2-[2-[[(Z)-[2-methoxy-1-(2,4,6-trifluorophenyl)ethylidene]amino]oxymethyl]-3-methyl-phenyl]prop-2-enoate]?
A: Diseased leaf area (%) (Puccinia triticina): 7%; Diseased leaf area (%) (Pyrenophora teres): 5%; Efficacy, % (Phakopsora pachyrhizi [1]; Table 6, untreated infection 62%): 66%; infection rate, % (Phakopsora pachyrhizi [1]; Table 6, untreated 62%): 21%; Diseased leaf area (%) (Phakopsora pachyrhizi [2]): 0%; Diseased leaf area (%) (Puccinia striiformis): 0%; Diseased leaf area (%) (Phakopsora pachyrhizi [3]): 0%

Q: How did the “Diseased leaf area (%)” value (Puccinia triticina) turn out when `CO/C=C(/C(=O)OC)c1cccc(C)c1CO/N=C(\COC)c1ccc(Cl)cc1Cl` [Compound 6, methyl (E)-2-[2-[[(Z)-[1-(2,4-dichlorophenyl)-2-methoxy-ethylidene]amino]oxymethyl]-3-methyl-phenyl]-3-methoxy-prop-2-enoate] was run?
A: The value was 11%.

Q: What about the “Diseased leaf area (%)” value (Pyrenophora teres) of the same molecule?
A: The value was 7%.

Q: What about the “Efficacy, %” value (Phakopsora pachyrhizi [1]; [4]) of the same molecule?
A: Its value is 56%.

Q: What about the “infection rate, %” value (Phakopsora pachyrhizi [1]; Table 5, untreated 71%) of the same molecule?
A: Its value is 31%.

Q: What about the “Diseased leaf area (%)” value (Phakopsora pachyrhizi [2]) of the same molecule?
A: Its value is 9%.

Q: And the “Diseased leaf area (%)” value (Puccinia striiformis)?
A: The value was 0%.

Q: What about the “Diseased leaf area (%)” value (Phakopsora pachyrhizi [3]) of the same molecule?
A: Its value is 13%.

Q: For `CNC(=O)/C(=N/OC)c1cccc(C)c1CO/N=C(\COC)c1ccc(F)c(F)c1` [Compound 5, (2E)-2-[2-[[(Z)-[1-(3,4-difluorophenyl)-2-methoxy-ethylidene]amino]oxymethyl]-3-methylphenyl]-2-methoxyimino-N-methyl-acetamide], which “Diseased leaf area (%)” value (Puccinia triticina) is on record?
A: Its value is 6%.

Q: And the “Diseased leaf area (%)” value (Pyrenophora teres)?
A: The value was 3%.

Q: What about the “B14 Efficacy, %” value (Phakopsora pachyrhizi [1]; [5]) of the same molecule?
A: The value was 57%.

Q: What about the “B14 infection rate, %” value (Phakopsora pachyrhizi [1]; Table 3, untreated 56) of the same molecule?
A: Its value is 24%.

Q: What about the “Diseased leaf area (%)” value (Phakopsora pachyrhizi [2]) of the same molecule?
A: Its value is 0%.

Q: And the “Diseased leaf area (%)” value (Puccinia striiformis)?
A: Its value is 7%.

Q: And the “Diseased leaf area (%)” value (Phakopsora pachyrhizi [3])?
A: The value was 0%.

Q: What does the source list for `COC/C(=N\OCc1c(C)cccc1/C(=N\OC)C(=O)OC)c1c(F)cc(F)cc1F` [Compound 2, methyl (2E)-2-methoxyimino-2-[2-[[(Z)-[2-methoxy-1-(2,4,6-trifluorophenyl)ethylidene]amino]oxymethyl]-3-methyl-phenyl]acetate]?
A: Diseased leaf area (%) (Pyrenophora teres): 6%; B14 Efficacy, % (Phakopsora pachyrhizi [1]; Table 4, untreated infection 52): 54%; B14 infection rate, % (Phakopsora pachyrhizi [1]; Table 4, untreated 52): 24%; Diseased leaf area (%) (Phakopsora pachyrhizi [2]): 7%; Diseased leaf area (%) (Puccinia striiformis): 11%; Diseased leaf area (%) (Phakopsora pachyrhizi [3]): 6%

Q: Which “Diseased leaf area (%)” value (Puccinia triticina) does the source give for `CNC(=O)/C(=N/OC)c1cccc(C)c1CO/N=C(\COC)c1c(F)cc(OC)cc1F` [Compound 7, (2E)-2-[2-[[(Z)-[1-(2,6-difluoro-4-methoxy-phenyl)-2-methoxy-ethylidene]amino]oxymethyl]-3-methyl-phenyl]-2-methoxyimino-N-methyl-acetamide] here?
A: The value was 6%.

Q: And the “Efficacy, %” value (Phakopsora pachyrhizi [1]; Table 7, untreated infection 63%)?
A: The value was 40%.

Q: And the “infection rate, %” value (Phakopsora pachyrhizi [1]; Table 7, untreated 63%)?
A: Its value is 38%.

Q: What about the “Diseased leaf area (%)” value (Phakopsora pachyrhizi [2]) of the same molecule?
A: Its value is 1%.

Q: And the “Diseased leaf area (%)” value (Puccinia striiformis)?
A: The value was 0%.

Q: And the “Diseased leaf area (%)” value (Phakopsora pachyrhizi [3])?
A: Its value is 0%.

Q: What does the source list for `CO/C=C(/C(=O)OC)c1cccc(C)c1CO/N=C(\COC)c1ccc(F)cc1Cl` [Compound 3]?
A: Diseased leaf area (%) (Puccinia triticina): 9%; Diseased leaf area (%) (Pyrenophora teres): 3%; Efficacy, % (Phakopsora pachyrhizi [1]; [4]): 56%; infection rate, % (Phakopsora pachyrhizi [1]; Table 5, untreated 71%): 31%; Diseased leaf area (%) (Phakopsora pachyrhizi [2]): 4%; Diseased leaf area (%) (Puccinia striiformis): 0%; Diseased leaf area (%) (Phakopsora pachyrhizi [3]): 1%

Q: Which “Diseased leaf area (%)” value (Puccinia triticina) does the source give for `CNC(=O)/C(=N/OC)c1cccc(C)c1CO/N=C(\COC)c1c(F)cc(F)cc1F` [Compound 1, (2E)-2-methoxyimino-2-[2-[[(Z)-[2-methoxy-1-(2,4,6-trifluorophenyl)ethylidene]amino]oxymethyl]-3-methyl-phenyl]-N-methyl-acetamide] here?
A: The value was 10%.

Q: What about the “Diseased leaf area (%)” value (Pyrenophora teres) of the same molecule?
A: Its value is 5%.

Q: And the “B14 Efficacy, %” value (Phakopsora pachyrhizi [1]; [5])?
A: The value was 57%.

Q: And the “B14 infection rate, %” value (Phakopsora pachyrhizi [1]; Table 3, untreated 56)?
A: Its value is 24%.

Q: And the “Diseased leaf area (%)” value (Phakopsora pachyrhizi [2])?
A: Its value is 0%.

Q: And the “Diseased leaf area (%)” value (Puccinia striiformis)?
A: Its value is 13%.

Q: And the “Diseased leaf area (%)” value (Phakopsora pachyrhizi [3])?
A: Its value is 0%.
